Legend:
[1] = system: unanesthetized spontaneously hypertensive rats; experiment: Heart rate determined simultaneously with blood pressure (sphygmometer connected to the pulse output); format: in vivo, rat; conditions: 10 mg/kg oral
Experimental: (§1) The anti-hypertensive activity of the compounds was determined by the tail cuff method using unanesthetized spontaneously hypertensive rats weighing 300 to 350 g (21 to 25 week old). In this experiment, the systolic blood pressure was determined by the bloodless method using a hemodynamometer. The heart rate was determined simultaneously using a sphygmometer connected to the pulse output. After rats were placed under condition of 40° C. for 10 minutes, the blood pressure was determined by holding the rats in a holder. The test compounds were suspended in a 0.5 wt% aqueous gum arabic. Hydralazine hydrochloride used as a comparative agent was administered as an aqueous solution thereof. The volume of oral administration was 0.5 ml per 100 g of body weight.

[2] = system: unanesthetized spontaneously hypertensive rats; experiment: Anti-hypertensive activity, systolic blood pressure, tail cuff method; format: in vivo, rat; conditions: 10 mg/kg oral
Experimental: as §1

Row | Structure (SMILES) | Changes in Heart Rate ([1]; 1 hr after administration) | Changes in Heart Rate ([1]; 2 hrs after administration) | Changes in Heart Rate ([1]; 4 hrs after administration) | Changes in Systolic Blood Pressure ([2]; 1 hr after administration) | Changes in Systolic Blood Pressure ([2]; 2 hrs after administration) | Changes in Systolic Blood Pressure ([2]; 4 hrs after administration) | Changes in Systolic Blood Pressure ([2]; 6 hrs after administration) | Changes in Heart Rate ([1]; 6 hrs after administration) | Changes in Heart Rate ([1]; 24 hrs after administration) | Changes in Systolic Blood Pressure ([2]; 24 hrs after administration)
1 | CN1C[C@H](Cn2ccnc2-c2ccccc2)C[C@@H]2c3cccc4[nH]cc(c34)C[C@H]21 [Example 13, 1-(6-Methylergolin-8β-ylmethyl)-2-phenylimidazole] | -46 Δ/min. | -49 Δ/min. | -49 Δ/min. | -52 Δ mmHg | -46 Δ mmHg | -54 Δ mmHg | -48 Δ mmHg | – | – | –
2 | CN1C[C@H](Cn2cccn2)C[C@@H]2c3cccc4[nH]cc(c34)C[C@H]21 [Example 4, 1-(6-Methylergolin-8β-ylmethyl)pyrazole] | -16 Δ/min. | -38 Δ/min. | -52 Δ/min. | -37 Δ mmHg | -51 Δ mmHg | -58 Δ mmHg | -49 Δ mmHg | -41 Δ/min. | -7 Δ/min. | -15 Δ mmHg
3 | CN1C[C@H](CN2C(=O)CCC2=O)C[C@@H]2c3cccc4[nH]cc(c34)C[C@H]21 [Example 8, N-(6-methylergolin-8β-ylmethyl)succinimide] | 6 Δ/min. | 3 Δ/min. | -32 Δ/min. | -64 Δ mmHg | -77 Δ mmHg | -59 Δ mmHg | -66 Δ mmHg | -40 Δ/min. | – | –
4 | CCc1nccn1C[C@@H]1C[C@@H]2c3cccc4[nH]cc(c34)C[C@H]2N(C)C1 [Example 10, 2-Ethyl-1-(6-methylergolin-8β-ylmethyl)imidazole] | 2 Δ/min. | -15 Δ/min. | -6 Δ/min. | -69 Δ mmHg | -64 Δ mmHg | -68 Δ mmHg | -66 Δ mmHg | -11 Δ/min. | – | –
5 | CCCc1nccn1C[C@@H]1C[C@@H]2c3cccc4[nH]cc(c34)C[C@H]2N(C)C1 [Example 12, 1-(6-Methylergolin-8β-ylmethyl)-2-propylimidazole] | -25 Δ/min. | -7 Δ/min. | -8 Δ/min. | -69 Δ mmHg | -59 Δ mmHg | -63 Δ mmHg | -59 Δ mmHg | -5 Δ/min. | – | –
6 | CC(C)c1nccn1C[C@@H]1C[C@@H]2c3cccc4[nH]cc(c34)C[C@H]2N(C)C1 [Example 11, 2-Isopropyl-1-(6-methylergolin-8β-ylmethyl)imidazole] | -37 Δ/min. | -21 Δ/min. | -24 Δ/min. | -53 Δ mmHg | -56 Δ mmHg | -54 Δ mmHg | -58 Δ mmHg | -46 Δ/min. | – | –
7 | CCOC(=O)c1ncn(C[C@@H]2C[C@@H]3c4cccc5[nH]cc(c45)C[C@H]3N(C)C2)c1C [Example 15B, ethyl 5-methyl-1-(6-methylergolin-8β-ylmethyl)-4-imidazolecarboxylate] | -4 Δ/min. | 5 Δ/min. | -8 Δ/min. | – | -49 Δ mmHg | -59 Δ mmHg | -59 Δ mmHg | -11 Δ/min. | – | –

— patent publication US4713457A, “Ergoline derivatives and acid addition salts thereof” (priority 1985, dated 1987)
